Results reported in patent publication US20230085307A1, “PYRIDAZINONE COMPOUND AND HERBICIDE” (NISSAN CHEMICAL CORPORATION, priority 2019, published 2023).

Columns and labels:
late watergrass = test: Test Example 1: herbicidal activity, application before weed generation under submerged conditions (Table 16, symbol A); assay type: in vivo, late watergrass (Echinochloa oryzicola)
Excerpt: (§1) [Test Example 1] Herbicidal Activity Test by Application before Weed Generation under Submerged Conditions After alluvial soil was placed into 1/10000 are of Wagner pot, water was poured and mixed to form a submerged condition having a water depth of 4 cm. Seeds of late watergrass, Japanese bulrush, and oval-leafed pondweed were sowed in a mixed manner in the aforementioned pot, and then 2.5 leaf stage rice plant seedlings were transplanted thereto. On the day of sowing seeds, the emulsion agent of the compound of the present invention prepared according to Formulation Example 2 was diluted with water so as to achieve a predetermined herbicide amount, and the diluted emulsion agent was applied to the surface of the water. The pot was placed in a greenhouse at 25° C. to 30° C. for growth of the plants. Three weeks after the herbicide application, the effect of the herbicide on each plant was evaluated according to the following criteria. Evaluation Criteria 5: Herbicidal rate of 90% or more (almost completely withered) 4: Herbicidal rate of 70% or more and less than 90% 3: Herbicidal rate of 40% or more and less than 70% 2: Herbicidal rate of 20% or more and less than 40% 1: Herbicidal rate of 5% or more and less than 20% 0: Herbicidal rate of 5% or less (almost no effect)

Japanese bulrush = test: Test Example 1: herbicidal activity, application before weed generation under submerged conditions (Table 16, symbol B); assay type: in vivo, Japanese bulrush (Schoenoplectus juncoides)
In short: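 Submerged Wagner pots (alluvial soil, 4 cm water) sown with weed seeds and planted with 2.5-leaf rice seedlings; emulsifiable concentrate diluted in water applied to water surface on sowing day. Held in greenhouse at 25-30 °C; injury scored 0-5 by herbicidal rate after three weeks.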

oval-leafed pondweed = test: Test Example 1: herbicidal activity, application before weed generation under submerged conditions (Table 16, symbol C); assay type: in vivo, oval-leafed pondweed (Monochoria vaginalis)
Excerpt: as §1

barnyard grass [1] = test: Test Example 3: herbicidal effect by foliage application, Wagner pot (Table 18, symbol H); assay type: in vivo, barnyard grass (Echinochloa crus-galli)
In short: (§2)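 Plants were sown in alluvial soil held under 0.1–0.5 cm standing water and grown 14 days in a greenhouse at 25–30 °C. An emulsifiable formulation, water-diluted to the set dose, was then sprayed onto the foliage, and effects were scored three weeks later using previously defined criteria.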

Chinese sprangletop = test: Test Example 3: herbicidal effect by foliage application, Wagner pot (Table 18, symbol D); assay type: in vivo, chinese sprangletop (Leptochloa chinensis)
In short: as §2

rice flat sedge = test: Test Example 3: herbicidal effect by foliage application, Wagner pot (Table 18, symbol E); assay type: in vivo, rice flat sedge (Cyperus iria)
In short: as §2

southern crabgrass = test: Test Example 5: herbicidal effect by foliage application, plastic box (Table 20, symbol F); assay type: in vivo, southern crabgrass (Digitaria ciliaris); settings: foliage application
In short: (§3)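 Plants were sown into sterilized diluvial soil under about 1.5 cm cover and kept in a greenhouse at 25° C. to 30° C. Fourteen days on, foliage received an even spray of the diluted emulsion. Herbicidal or crop effect was judged three weeks afterwards.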

green foxtail = test: Test Example 5: herbicidal effect by foliage application, plastic box (Table 20, symbol G); assay type: in vivo, green foxtail (Setaria viridis); settings: foliage application
In short: as §3

barnyard grass [2] = test: Test Example 5: herbicidal effect by foliage application, plastic box (Table 20, symbol H); assay type: in vivo, barnyard grass (Echinochloa crus-galli); settings: foliage application
In short: as §3

wild oat = test: Test Example 5: herbicidal effect by foliage application, plastic box (Table 20, symbol I); assay type: in vivo, wild oat (Avena fatua); settings: foliage application
In short: as §3

blackgrass = test: Test Example 5: herbicidal effect by foliage application, plastic box (Table 20, symbol J); assay type: in vivo, blackgrass (Alopecurus myosuroides); settings: foliage application
In short: as §3

Italian ryegrass = test: Test Example 5: herbicidal effect by foliage application, plastic box (Table 20, symbol K); assay type: in vivo, Italian ryegrass (Lolium multiflorum); settings: foliage application
In short: as §3

windgrass = test: Test Example 5: herbicidal effect by foliage application, plastic box (Table 20, symbol L); assay type: in vivo, windgrass (Apera spica-venti); settings: foliage application
In short: as §3

velvetleaf = test: Test Example 5: herbicidal effect by foliage application, plastic box (Table 20, symbol M); assay type: in vivo, velvetleaf (Abutilon theophrasti); settings: foliage application
In short: as §3

lambsquarters = test: Test Example 5: herbicidal effect by foliage application, plastic box (Table 20, symbol O); assay type: in vivo, lambsquarters (Chenopodium album); settings: foliage application
In short: as §3

persian speedwell = test: Test Example 5: herbicidal effect by foliage application, plastic box (Table 20, symbol R); assay type: in vivo, Persian speedwell (Veronica persica); settings: foliage application
In short: as §3

chickweed = test: Test Example 5: herbicidal effect by foliage application, plastic box (Table 20, symbol P); assay type: in vivo, common chickweed (Stellaria media); settings: foliage application, 320 g/ha, three weeks after application
In short: as §3

[3] = 80 g/ha, 3 weeks after application
[4] = amount of applied herbicide 320 g/ha
[5] = 320 g/ha, three weeks after application

Compound: CC#CCOc1ccc(-c2sc3ccccc3c2-c2c(O)c(C)nn(C)c2=O)cc1 [1-219]
- Herbicidal effect on A: late watergrass (grade 0-5) (late watergrass; 80 g/ha applied herbicide): 5 (Herbicidal rate of 90% or more (almost completely withered))
- Herbicidal effect on B: Japanese bulrush (grade 0-5) (Japanese bulrush; 80 g/ha applied herbicide): 3 (Herbicidal rate of 40% or more and less than 70%)
- Herbicidal effect on C: oval-leafed pondweed (grade 0-5) (oval-leafed pondweed; 80 g/ha applied herbicide): 3 (Herbicidal rate of 40% or more and less than 70%)
- herbicidal effect on H (barnyard grass), rating 0-5 (barnyard grass [1]; 80 g/ha): 5 (Herbicidal rate of 90% or more (almost completely withered))
- herbicidal effect on D (Chinese sprangletop), rating 0-5 (Chinese sprangletop; 80 g/ha): 5 (Herbicidal rate of 90% or more (almost completely withered))
- herbicidal effect on E (rice flat sedge), rating 0-5 (rice flat sedge; 80 g/ha): 3 (Herbicidal rate of 40% or more and less than 70%)
- effect on southern crabgrass (F) (southern crabgrass; [3]): 3 (Herbicidal rate of 40% or more and less than 70%)
- effect on green foxtail (G) (green foxtail; [3]): 5 (Herbicidal rate of 90% or more (almost completely withered))
- effect on barnyard grass (H) (barnyard grass [2]; [3]): 4 (Herbicidal rate of 70% or more and less than 90%)
- effect on wild oat (I) (wild oat; [3]): 1 (Herbicidal rate of 5% or more and less than 20%)
- effect on blackgrass (J) (blackgrass; [3]): 4 (Herbicidal rate of 70% or more and less than 90%)
- effect on Italian ryegrass (K) (Italian ryegrass; [3]): 5 (Herbicidal rate of 90% or more (almost completely withered))
- effect on windgrass (L) (windgrass; [3]): 0 (Herbicidal rate of 5% or less (almost no effect))
- effect on velvetleaf (M) (velvetleaf; [3]): 4 (Herbicidal rate of 70% or more and less than 90%)
- effect on lambsquarters (O) (lambsquarters; [3]): 5 (Herbicidal rate of 90% or more (almost completely withered))
- effect on persian speedwell (R) (persian speedwell; [3]): 5 (Herbicidal rate of 90% or more (almost completely withered))

Compound: CCc1nn(C)c(=O)c(-c2c(-c3ccccc3OC)sc3ccc(F)cc23)c1O [2-414]
- Herbicidal effect, A: late watergrass (late watergrass; [4]): 2 (Herbicidal rate of 20% or more and less than 40%)
- Herbicidal effect, B: Japanese bulrush (Japanese bulrush; [4]): 3 (Herbicidal rate of 40% or more and less than 70%)
- Herbicidal effect, C: oval-leafed pondweed (oval-leafed pondweed; [4]): 2 (Herbicidal rate of 20% or more and less than 40%)
- herbicidal effect on H: barnyard grass (barnyard grass [1]; [4]): 4 (Herbicidal rate of 70% or more and less than 90%)
- herbicidal effect on D: Chinese sprangletop (Chinese sprangletop; [4]): 3 (Herbicidal rate of 40% or more and less than 70%)
- herbicidal effect on E: rice flat sedge (rice flat sedge; [4]): 3 (Herbicidal rate of 40% or more and less than 70%)
- F: southern crabgrass, herbicidal effect grade (southern crabgrass; [5]): 1 (Herbicidal rate of 5% or more and less than 20%)
- G: green foxtail, herbicidal effect grade (green foxtail; [5]): 2 (Herbicidal rate of 20% or more and less than 40%)
- H: barnyard grass, herbicidal effect grade (barnyard grass [2]; [5]): 3 (Herbicidal rate of 40% or more and less than 70%)
- I: wild oat, herbicidal effect grade (wild oat; [5]): 0 (Herbicidal rate of 5% or less (almost no effect))
- J: blackgrass, herbicidal effect grade (blackgrass; [5]): 2 (Herbicidal rate of 20% or more and less than 40%)
- K: Italian ryegrass, herbicidal effect grade (Italian ryegrass; [5]): 1 (Herbicidal rate of 5% or more and less than 20%)
- L: windgrass, herbicidal effect grade (windgrass; [5]): 3 (Herbicidal rate of 40% or more and less than 70%)
- M: velvetleaf, herbicidal effect grade (velvetleaf; [5]): 3 (Herbicidal rate of 40% or more and less than 70%)
- O: lambsquarters, herbicidal effect grade (lambsquarters; [5]): 3 (Herbicidal rate of 40% or more and less than 70%)
- P: chickweed, herbicidal effect grade (chickweed): 5 (Herbicidal rate of 90% or more (almost completely withered))
- R: persian speedwell, herbicidal effect grade (persian speedwell; [5]): 5 (Herbicidal rate of 90% or more (almost completely withered))
